Where a name gives a salt, the structure may show the parent alone. Read-outs that look alike come from different tables or passages of the source. Values belong to the molecule of their own block, whether it stands above or below them.
Tests used:
[1] = molecular target: CDK2/Cyclin A (Homo sapiens, UniProt P24941); assay: Inhibition of CDK2/Cyclin A Retinoblastoma Kinase Activity; assay type: biochemical; conditions: for Ki: apparent Ki, CDK2/proteolyzed cyclin A, Rb fragment substrate, 25 μM ATP; for CDK2 % Inhibition At 0.03 μM: Table 2
Method in brief: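 Baculovirus-expressed CDK2 complexed with proteolyzed cyclin A (10 or 19 nM), Rb fragment substrate, 25 μM [32P/33P]ATP, HEPES pH 7.4, 30 °C for 60 or 75 min under initial-rate conditions. Filter capture and phosphorimager readout; apparent Ki fitted to competitive or tight-binding competitive inhibition.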

[2] = molecular target: human CDK4 and genetically truncated (1-264) cyclin D3 (Homo sapiens, UniProt P11802); assay: Inhibition of CDK4/Cyclin D Retinoblastoma Kinase Activity; assay type: biochemical; conditions: for Ki: apparent Ki, CDK4/truncated cyclin D3, Rb fragment substrate, 25 μM ATP
Method in brief: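 Human CDK4/truncated cyclin D3 (1-264) complex from baculovirus-infected insect cells, 5 nM, phosphorylating Rb fragment (residues 386-928, His-tagged) with 25 μM [32/33P]ATP in HEPES pH 7.4, MgCl2, 2% DMSO at 30° C. for 20 min (60 min for tight binders). Filter-captured radioactivity by phosphorimager; apparent Ki from competitive or tight-binding fits.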

[3] = test system: HCT-116 cell line; assay: Inhibition of cell growth, tetrazolium salt (MTT) assay; assay type: cell-based; conditions: for IC50: Homo sapiens, HCT-116, 120 h, MTT, three to five days, read-out: HCT-116 IC50; for HCT-116 % Inhibition at 0.25 μM: 0.25 μM compound
Method in brief: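 Growth inhibition by MTT reduction at 540 nm (0.2 mg/mL, 4 h at 37° C, formazan dissolved in DMSO), normalized to cells given only 0.5% v/v DMSO. HCT-116 cultures in McCoy's 5A were dosed 4 h post-plating and kept three to five days at 37° C, 5% CO2.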

[4] = 0.1 μM compound, HCT-116, Table 4
[5] = 0.1 μM compound, HCT-116, Table 3

Chain of human CDK4 and genetically truncated (1-264) cyclin D3 (P11802 whole entry, the tested form may be a part): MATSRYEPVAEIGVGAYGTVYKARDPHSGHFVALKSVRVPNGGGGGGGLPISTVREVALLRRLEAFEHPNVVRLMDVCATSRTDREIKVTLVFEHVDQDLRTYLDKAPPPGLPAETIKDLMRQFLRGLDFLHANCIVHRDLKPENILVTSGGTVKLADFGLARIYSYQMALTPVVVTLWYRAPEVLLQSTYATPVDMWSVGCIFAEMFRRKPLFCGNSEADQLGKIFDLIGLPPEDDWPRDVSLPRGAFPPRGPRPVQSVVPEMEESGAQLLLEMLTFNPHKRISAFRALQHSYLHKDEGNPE
Chain of human CDK4 and genetically truncated (1-264) cyclin D3 (P30281 1-264 partner): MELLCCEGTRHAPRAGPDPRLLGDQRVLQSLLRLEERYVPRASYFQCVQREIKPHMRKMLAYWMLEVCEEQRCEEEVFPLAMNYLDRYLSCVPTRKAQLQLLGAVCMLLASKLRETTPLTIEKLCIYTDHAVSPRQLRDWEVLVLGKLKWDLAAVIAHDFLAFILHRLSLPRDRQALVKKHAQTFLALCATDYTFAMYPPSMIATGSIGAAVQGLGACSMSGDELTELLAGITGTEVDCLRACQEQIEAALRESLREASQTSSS

Ki [1]: 0.28 nM | Ki [2]: 0.28 nM | IC50 ([3]; first HCT-116 column (c4)): 160 nM | IC50 ([3]; second HCT-116 column (c5)): 1600 nM
SMILES: Cc1ncc(-c2ccc(S(=O)(=O)N3CCC(Nc4nc(N)c(C(=O)c5c(F)cccc5F)s4)CC3)cc2)[nH]1 [Example F33, 1-(4-Amino-2-{1-[4-(2-methyl-1H-imidazol-4-yl)-benzenesulfonyl]-piperidin-4-ylamino}-thiazol-5-yl)-1-(2,6-difluoro-phenyl)-methanone Dihydrochloride]

Ki [1]: 0.35 nM | Ki [2]: 0.97 nM | IC50 ([3]; first HCT-116 column (c4)): 80 nM | IC50 ([3]; second HCT-116 column (c5)): 290 nM
SMILES: CN1CC[C@@H](Oc2ccc(S(=O)(=O)N3CCC(Nc4nc(N)c(C(=O)c5c(F)cccc5F)s4)CC3)cn2)C1 [Example H27, (4-Amino-2-{1-[6-(1-methyl-pyrrolidin-3R-yloxy)-pyridine-3-sulfonyl]-piperidin-4-ylamino}-thiazol-5-yl)-(2,6-difluoro-phenyl)-methanone Hydrochloride]

Ki [1]: 480 nM | Ki [2]: 780 nM | IC50 ([3]; first HCT-116 column (c4)): > 5000 nM | IC50 ([3]; second HCT-116 column (c5)): > 5000 nM
SMILES: CC(=O)Nc1ccc(S(=O)(=O)N2CCCC(Nc3nc(N)c(C(=O)c4c(F)cccc4F)s3)C2)cc1 (stereo not drawn) [Example F36, N-(4-{3-[4-Amino-5-(2,6-difluoro-benzoyl)-thiazol-2-ylamino]-piperidine-1-sulfonyl}-phenyl)-acetamide]

CDK2 % Inhibition At 0.03 μM ([1]; 0.03 μM compound): 33% | CDK4 % Inhibition at 0.03 μM ([2]; 0.03 μM compound, Table 2): −1%
SMILES: Cc1cc(C)cc(NC(=O)N2CCC(Nc3nc(N)c(C(=O)c4c(F)cccc4F)s3)CC2)c1 [Example O49]
HCT-116 % Inhibition at 0.25 μM ([3]; HCT-116, Table 2): 20%

CDK2 % Inhibition At 0.03 μM ([1]; 0.03 μM compound): 31% | CDK4 % Inhibition at 0.03 μM ([2]; 0.03 μM compound, Table 2): 8%
SMILES: CC(NC(=O)N1CCC(Nc2nc(N)c(C(=O)c3c(F)cccc3F)s2)CC1)c1cccc2ccccc12 (stereo not drawn) [Example O67]
HCT-116 % Inhibition at 0.25 μM ([3]; HCT-116, Table 2): 50%

CDK2 % Inhibition at 0.03 μM ([1]; 0.03 μM compound, Table 4): 54% | CDK4 % Inhibition at 0.03 μM ([2]; 0.03 μM compound, Table 4): 77%
SMILES: COC(=O)c1ccc(OC(=O)N2CCC(Nc3nc(N)c(C(=O)c4c(F)cccc4F)s3)CC2)cc1 [Example Q87]
HCT-116 % Inhibition at 0.1 μM [3, 4]: 4% | HCT-116 % Inhibition at 0.25 μM ([3]; HCT-116, Table 4): 37%

CDK2 % Inhibition at 0.03 μM ([1]; 0.03 μM compound, Table 3): 80% | CDK4 % Inhibition at 0.03 μM ([2]; 0.03 μM compound, Table 3): 66%
SMILES: Nc1nc(NC2CCN(S(=O)(=O)c3cc(S(=O)(=O)c4ccccc4)cs3)CC2)sc1C(=O)c1c(F)cccc1F [Example P41]
HCT-116 % Inhibition at 0.1 μM [3, 5]: 0% | HCT-116 % Inhibition at 0.25 μM ([3]; HCT-116, Table 3): 26%

CDK2 % Inhibition at 0.03 μM ([1]; at 0.03 μM): 24% | CDK4 % Inhibition at 0.03 μM ([2]; at 0.03 μM): 30%
SMILES: Nc1nc(NC2CCN(C(=O)c3c(Cl)cccc3Cl)CC2)sc1C(=O)c1c(F)cccc1F [Example R110]
HCT-116 % Inhibition at 0.1 μM ([3]; HCT-116 cells, at 0.1 μM): 3% | HCT-116 5 Inhibition at 0.25 μM ([3]; HCT-116 cells): 48

CDK2 % Inhibition at 0.03 μM ([1]; 0.03 μM compound, Table 3): 54% | CDK4 % Inhibition at 0.03 μM ([2]; 0.03 μM compound, Table 3): 66%
SMILES: Nc1nc(NC2CCN(S(=O)(=O)c3ccc(Cl)s3)CC2)sc1C(=O)c1c(F)cccc1F [Example P36]
HCT-116 % Inhibition at 0.1 μM [3, 5]: 8% | HCT-116 % Inhibition at 0.25 μM ([3]; HCT-116, Table 3): 26%

Ki [1]: 1.6 nM | Ki [2]: 1.1 nM | IC50 ([3]; first HCT-116 column (c4)): 180 nM | IC50 ([3]; second HCT-116 column (c5)): 450 nM
SMILES: CC(C)S(=O)(=O)N1CCC(Nc2nc(N)c(C(=O)c3c(F)cccc3F)s2)CC1 [Example F11, 1-{4-Amino-2-[1-(propane-2-sulfonyl)-piperidin-4-ylamino]-thiazol-5-yl}-1-(2,6-difluoro-phenyl)-methanone]

SMILES: Nc1nc(NC2CCN(C(=O)Oc3ccc([N+](=O)[O-])cc3)CC2)sc1C(=O)c1c(F)cccc1F [Example Q84]
CDK2 % Inhibition at 0.03 μM ([1]; 0.03 μM compound, Table 4): 63% | CDK4 % Inhibition at 0.03 μM ([2]; 0.03 μM compound, Table 4): 88% | HCT-116 % Inhibition at 0.1 μM [3, 4]: 3% | HCT-116 % Inhibition at 0.25 μM ([3]; HCT-116, Table 4): 40%

CDK2 % Inhibition at 0.03 μM ([1]; at 0.03 μM): 20% | CDK4 % Inhibition at 0.03 μM ([2]; at 0.03 μM): 49%
SMILES: COc1ccc(C(=O)N2CCC(Nc3nc(N)c(C(=O)c4c(F)cccc4F)s3)CC2)cc1 [Example R148]
HCT-116 % Inhibition at 0.1 μM ([3]; HCT-116 cells, at 0.1 μM): 0% | HCT-116 5 Inhibition at 0.25 μM ([3]; HCT-116 cells): 42

Ki [1]: 3.7 nM | Ki [2]: 1.6 nM | IC50 ([3]; first HCT-116 column (c4)): 160 nM | IC50 ([3]; second HCT-116 column (c5)): 510 nM
SMILES: Nc1nc(NC2CCN(S(=O)(=O)CCN3CCCC3c3ccccc3)CC2)sc1C(=O)c1c(F)cccc1F (stereo not drawn) [Example K29, Trifluoroacetic Acid Salt]

Ki [1]: 5.6 nM | Ki [2]: 0.64 nM | IC50 ([3]; first HCT-116 column (c4)): 650 nM | IC50 ([3]; second HCT-116 column (c5)): 5000 nM
SMILES: CNCCS(=O)(=O)N1CCC(Nc2nc(N)c(C(=O)c3c(F)cccc3F)s2)CC1 [Example K33, {4-Amino-2-[1-(2-methylamino-ethanesulfonyl)-piperidin-4-ylamino]-thiazol-5-yl}-(2,6-difluoro-phenyl)-methanone Trifluoroacetic Acid Salt.]

Reference: patent US20050101595A1, “N-containing cycloalkyl-substituted amino-thiazole derivatives and pharmaceutical compositions for inhibiting cell proliferation and methods for their use” (PFIZER INC., priority 2003, published 2005)
